# Structures can show the parent of a compound that is named as a salt.
# Molecular target: T1, Acetylcholinesterase (Rattus norvegicus, UniProt P37136)
# T1 construct: S1 fraction of a homogenate of male Wistar rat cerebral cortex as the cholinesterase source; from tissue; host or cells: male Wistar rat cerebral cortex, S1 fraction of homogenate
# Assay: Cholinesterase inhibitory activity with (acetyl[^3 H])-acetylcholine
# Type: biochemical
# Conditions: S1 fraction of homogenate of male Wistar rat cerebral cortex; 30 minutes incubation
# Experimental: The cholinesterase inhibitory activity of the compound of this invention was assayed with (acetyl[^3 H])-acetylcholine. More specifically, (acetyl[^3 H])-acetylcholine as the substrate and the compound of this invention as the test sample were added to the S1 fraction of a homogenate of male Wistar rat cerebral cortex as the cholinesterase source. The mixture was incubated for 30 minutes, after completion of the reaction, to the reaction mixture was added a toluene-based scintillator, and the mixture was shaken. The reaction product [^3 H]-acetic acid was transferred to the toluene layer, which was subjected to determination of cholinesterase inhibitory activity by counting with a liquid scintillation counter.
# The cholinesterase inhibitory activity of the test compound was expressed in 50% inhibitory concentration (IC50).
# T1 sequence (P37136 32-614): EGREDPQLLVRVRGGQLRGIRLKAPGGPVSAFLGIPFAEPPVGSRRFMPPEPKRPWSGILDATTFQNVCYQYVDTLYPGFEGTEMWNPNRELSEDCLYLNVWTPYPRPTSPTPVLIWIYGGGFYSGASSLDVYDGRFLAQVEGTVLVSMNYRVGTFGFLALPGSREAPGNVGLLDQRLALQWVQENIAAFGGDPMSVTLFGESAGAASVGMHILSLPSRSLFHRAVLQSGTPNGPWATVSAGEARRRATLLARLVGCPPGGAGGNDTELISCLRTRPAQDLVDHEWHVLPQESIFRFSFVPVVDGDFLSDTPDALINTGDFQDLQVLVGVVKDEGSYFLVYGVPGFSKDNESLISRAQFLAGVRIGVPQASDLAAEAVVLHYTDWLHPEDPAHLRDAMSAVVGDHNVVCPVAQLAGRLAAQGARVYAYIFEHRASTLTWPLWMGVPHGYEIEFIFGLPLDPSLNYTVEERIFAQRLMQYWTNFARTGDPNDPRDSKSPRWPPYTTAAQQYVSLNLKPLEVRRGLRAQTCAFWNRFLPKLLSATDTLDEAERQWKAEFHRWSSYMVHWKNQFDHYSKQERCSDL
row,SMILES,IC50 [nM]
1,"COc1ccc(CN2CCOc3ccc(C(=O)CCC4CCN(Cc5ccccc5)CC4)cc3C2)cc1 [Example 5, 1-[4-(4-Methoxyphenylmethyl)-2,3,4,5-tetrahydro-1,4-benzoxazepin-7-yl]-3-[1-(phenylmethyl)piperidin-4-yl]-1-propanone dihydrochloride]",69.6
2,"O=CN1CCOc2ccc(C(=O)CCN3CCN(Cc4ccccc4)CC3)cc2C1 [Example 6, 1-(4-Formyl-2,3,4,5-tetrahydro-1,4-benzoxazepin-7-yl)-3-[4-(phenylmethyl)piperazin-1-yl]-1-propanone dihydrochloride]",107
3,"Cl.Cl.O=C(CCC1CCN(Cc2ccccc2)CC1)c1ccc2c(c1)CN(Cc1ccccc1)CCO2 [3-B, 1-[4-(Phenylmethyl)-2,3,4,5-tetrahydro-1,4-benzoxazepin-7-yl]-3-[1-(phenylmethyl)piperidin-4-yl]-1-propanone dihydrochloride]",119
4,"CC(=O)N1CCOc2ccc(C(=O)CCC3CCN(Cc4ccccc4)CC3)cc2C1 [Example 4, 1-(4-Acetyl-2,3,4,5-tetrahydro-1,4-benzoxazepin-7-yl)-3-[1-(phenylmethyl)piperidin-4-yl]-1-propanone hydrochloride]",54.5
5,O=C(CCC1CCN(Cc2ccccc2)CC1)c1ccc2c(c1)CN(Cc1ccc([N+](=O)[O-])cc1)CCO2 [8-5],12.7
6,"O=C(CCC1CCN(Cc2ccccc2)CC1)c1ccc2c(c1)CNCCO2 [3-A, 3-[1-(Phenylmethyl)piperidin-4-yl]-1-(2,3,4,5-tetrahydro-1,4-benzoxazepin-7-yl)-1-propanone dihydrochloride]",17.5

# Tested on: mice
# Assay: Antidepressant activity, tail suspension test
# Type: in vivo, ICR male mice
# Conditions: 30 mg/kg, oral; thirty minutes later suspended on tails for 10 minutes; **P < 0.01; saline 49.45 ± 2.47
# Experimental: The antidepressant activity of the compound of the present invention was assayed by means of tail suspension test using ICR male mice (five weeks of age, weighing 23.5 to 37.6 g) as test animals. […]. Thirty minutes later, the mice were suspended on tails for 10 minutes and immobility thereof (% control) was measured. The antidepressant activity of the test compound was shown as in percent control of immobility. As a comparative compound, desipramine, which is known to have an antidepressant activity, was employed and the immobility thereof was measured in the same manner as described above.
row,SMILES,Immobility [%]
1,"Cl.Cl.O=C(CCC1CCN(Cc2ccccc2)CC1)c1ccc2c(c1)CN(Cc1ccccc1)CCO2 [3-B, 1-[4-(Phenylmethyl)-2,3,4,5-tetrahydro-1,4-benzoxazepin-7-yl]-3-[1-(phenylmethyl)piperidin-4-yl]-1-propanone dihydrochloride]",34.37 ± 4.49
2,"CNCCCN1c2ccccc2CCc2ccccc21 [desipramine, reference compound]",37.25 ± 3.32
